Tests used:
eNOS [1] = assay: Western blotting of eNOS expression in isolated rat pulmonary artery ring, short-term (acute) hypoxia or normoxia; type: cell-based
Protocol: In our in vitro short-term experiment, isolated rat pulmonary artery was grown under normoxia (20% O2) or hypoxia (1% O2) at 37° C. for 24 hrs as was previously done (Wu BN, et al. Int J Immunopathol Pharmacol 24:925, 2011). The heart weight and body weight ratio (HW/BW) of the rats treated with one of SPAAX-1, SPAAX-1 RX complex, Sildenafil or Sildenafil RX complex each measured on the 21st hypoxic day. All animal care and the experimental protocols of this study were approved by the Animal Care and Use Committee of the Kaohsiung Medical University. Male Wistar rats (200-250 g), provided by the National Laboratory Animal Breeding and Research Center (Taipei, Taiwan), were housed under constant temperature and controlled illumination. Food and water were available ad libitum.
Whole right lung tissues of hypoxia-treated and untreated rats were isolated and cut into small strips and placed into an extraction buffer (Tris 10 mM, pH 7.0, NaCl 140 mM, PMSF 2 mM, DTT 5 mM, NP-40 0.5%, pepstatin A 0.05 mM and leupeptin 0.2 mM) for protein extraction, and then centrifuged at 12,500 g for 30 min. To measure the expression levels of the proteins, the total proteins were extracted and Western blotting analysis was performed as described previously (Bivalacqua T J, et al., 2013, TJ PLoSONE 8: e68028. doi:10.1371/journal. pone.0068028). Briefly, the protein extract was boiled to a ratio of 4:1 with a sample buffer (Tris 100 mM, pH 6.8, glycerol 20%, SDS 4% and bromophenol blue 0.2%). Electrophoresis was performed using 10% SDS-polyacrylamide gel (2 hr, 100 V, 40 mA, […] protein per lane). Separated proteins were transferred to PVDF membranes treated with 5% fat-free milk powder to block the nonspecific IgGs (90 min, 100 V) and incubated for one hour with a specific protein antibody. The blot was then incubated with anti-mouse or anti-goat IgG linked to alkaline phosphatase (1:1000) for 1 hr. Immunoreactive bands were visualized using horseradish peroxidase-conjugated secondary antibodies and subsequent electrochemiluminescence (ECL) detection (GE Healthcare Bio-Sciences Corp., Piscataway, N.J., U.S.A.). Mouse or rabbit monoclonal antibody of eNOS (Upstate, N.Y., U.S.A.), sGCα (Sigma-Adrich, CA, U.S.A., sGCβ (Santa Cruz, Calif., U.S.A.), PDE-5A (BD Tansduction, San Jose, Calif., U.S.A.), PKG (Calbiochem, San Diego, Calif., U.S.A.) ROCKII (Upstate, N.Y., U.S.A.), RhoA (Santa Cruze, Calif., U.S.A.) and the loading control protein β-actin (Sigma-Adrich, MO, U.S.A.) were used in our Western blot analysis.
The Western blotting analysis measurements were performed as per lung tissue.

hypoxic rats = assay: Pulmonary artery wall thickness and muscularization (HE staining) after long-term hypoxia; type: in vivo, rat
Protocol: The right lobes of the rat lungs and heart of six rats from each group were cut and soaked in formalin, dehydrated through graded alcohols, and embedded in paraffin wax. The lung tissue specimens fixed with formalin (4%) were embedded in paraffin for one hour at 4° C., cut into 4-μm-thick sections, and subjected to H&E staining before examination by light microscope. In our histopathological study, we measured the thickening of the medial wall of the small intrapulmonary arteries under an Eclipse TE2000-S (Nikon) microscope. In the heart tissues, the 4-μm-thick paraffin sections were cut from paraffin-embedded tissue blocks and de-paraffinized by immersion in xylene and rehydrated as previously described (Bivalacqua T J, et al., PLoSONE 8: e68028. doi:10.1371/journal. pone.0068028). The slices were then dyed with H&E. After gently rinsing with water, each slide was dehydrated through graded alcohols and finally soaked in xylene twice. The relative cardiac weight of right ventricle (RV)/[left ventricle (LV)+intraventricular septum (S)] ratio (i.e. right heart index) was calculated using right ventricle/left ventricle+septum (RV/LV+S). Measurements were obtained with Histolab software (Microvision Instruments, Evry, France).

eNOS [2] = assay: Immunohistochemistry of eNOS in pulmonary artery wall after long-term hypoxia; type: in vivo, rat
Protocol: (§1) For histological analysis, the rat pulmonary right lung sections or pulmonary artery were fixed in 4% formaldehyde for 1 hour at 4° C. After washing with phosphate buffer saline (PBS), they were sent for paraffin-embedded serial-sections. Serial cross-sections 7 μm thick were obtained from the cross-section of each pulmonary artery. Tissue sections were deparaffinized and rehydrated in an ethanol series. After tissue rehydration, endogenous peroxidase activity was quenched with 3% hydrogen peroxide for 30 minutes, and the sections were gently washed in PBS. Non-specific binding was blocked by incubation with 1% nonimmune bovine serum albumin (BSA) in PBS for 30 minutes at room temperature.
(§2) The tissue sections were incubated for 1 hour at room temperature with antibody against VEGF (ab1442, Millipore) or against eNOS (ab5589, Abcam) diluted 1:200 in PBS with 1% BSA. After being washed with PBS, the sections were incubated for 1 hour at room temperature with biotinylated goat antibody against rabbit (Dako, E-0432) and diluted 1:200 in PBS for 30 minutes at room temperature. The reaction was visualized by the addition of 3-3-diaminobenzidine (DAB) in a working solution of DAB substrate kit for peroxidase (vector lab, SK-4100) at room temperature for 5 minutes. The sections were washed in PBS for 10 minutes between each step, and counterstained with haematoxylin. […]

VEGF [3] = assay: Immunohistochemistry of VEGF in pulmonary artery wall after long-term hypoxia; type: in vivo, rat
Protocol: as §1, §2

eNOS [4] = assay: Western blotting of eNOS in lung tissue after long-term hypoxia; type: in vivo, rat; conditions: hypoxia 21 days; compared to normoxia control
sGCα1 = assay: Western blotting of sGCα1 in lung tissue after long-term hypoxia; type: in vivo, rat; conditions: hypoxia 21 days; compared to normoxia control
ROCK II = assay: Western blotting of ROCK II in lung tissue after long-term hypoxia; type: in vivo, rat; conditions: hypoxia 21 days; hypoxia 144.7±12.6%
VEGF [5] = assay: Western blotting of VEGF in lung tissue after long-term hypoxia; type: in vivo, rat; conditions: hypoxia 21 days; hypoxia 168.9±24.6%
PDE5A = conditions: hypoxia 21 days; % of the normal level; hypoxia 43.8±12.6%

Structure (SMILES): Cn1c(=O)c2c(ncn2CCN2CCN(c3ccccc3Cl)CC2)n(C)c1=O.O=C1O[C@H]([C@@H](O)CO)C(O)=C1O [SPAAX-1 ascorbate complex, 7-[2-[4-(2-chlorobenzene)piperazinyl]ethyl]-1,3-dimethylxanthine.ascorbic acid]
- eNOS in isolated hypoxic pulmonary artery (eNOS [1]; hypoxia for 24 hrs, versus control level in normoxia, hypoxia 60±8.3%): 45±3.0%
- eNOS in acute hypoxia (eNOS [1]; isolated pulmonary artery, acute hypoxia): restored
- expression of eNOS in isolated pulmonary artery ring (eNOS [1]; normoxia for 24 hrs, 10 μm, versus non-treated controls): 117.9±9.1%
- Small pulmonary arterial morphology (<150 μm) (hypoxic rats; hypoxia 21 days, 5 mg/kg/day): highly improved
- hypoxia-induced pulmonary artery wall thickness (hypoxic rats; hypoxia 21 days, 5 mg/kg/day, hypoxia 165.8±5.4%): inhibited
- muscularizations of distal pulmonary artery (HE staining) (hypoxic rats; hypoxic rats, versus vehicle only): significantly lower
- eNOS immunostaining reactivity of pulmonary artery (eNOS [2]): restored the decay of eNOS
- VEGF immunostaining reactivity of pulmonary artery (VEGF [3]): reduced
- eNOS expression in lung tissue (eNOS [4]): 139.7±16.9%
- sGCα1 expression in lung tissue (sGCα1): 40.4±8.4%
- ROCKII expression in lung tissue (ROCK II): 50.32±7.9%
- VEGF expression in lung tissue (VEGF [5]): 120.9±22.2%
- PDE5A expression in lung tissue (PDE5A): 76.9±4.9%
